The record followed here is patent US20080188563A1, “BLOOD FLUIDITY IMPROVING AGENT” (KAO CORPORATION, priority 2002, published 2008).

Structures are written as SMILES.

For test [1], the system named is stroke-prone spontaneously hypertensive rats (SHRSP/Izm, male). Kind of test: Evaluation of blood fluidity: whole blood transit time through microchannel array (MC-FAN) after 28 days oral administration. It counts as in vivo, rat. The settings on record: 50 mg/Kg/day oral; for Transit time: 7 μm microchannels, 20 cm water column. As for the experimental part: Tests were started using stroke-prone spontaneously hypertensive rats (SHRSP/Izm, male) 6 weeks old after acclimating the rats 1 week or longer. The rats were all fed under the conditions of 20 to 26° C. temperature, 40 to 70% humidity and 12 hr. lighting time (from 6 a.m. to 6 p.m.).
The rats were administered with samples of the example of the present invention and samples of the comparative example once a day for continuous 28 days from a day when the rats reached 8 weeks of age. For administration, samples were orally administered by forced administration using a disposable polypropylene syringe attached with a metallic oral sonde. For the example, each sample contained a chlorogenic acid (supplied by Sigma Chemical Co., Ltd.) of 50 mg/Kg (body weight)/day, while the comparative example used the equal dose of injection grade water (supplied by Otsuka Pharmaceutical Co., Ltd., Tokyo, Japan) as samples. The preferred example also used the injection grade water as a medium for samples.
For feeds, the rats had been fed freely with a solid feed (CRF-1 supplied by Oriental Yeast Co., Ltd., Tokyo, Japan) for a period from the arrival to grouping of rats and with another solid feed (SP (a feed containing 0.4% common salt) supplied by the same manufacturer as above) for a period succeeding to the grouping. For drinking water, tap water was used in the period from the receipt to grouping of rats and 1% brine in the period after the grouping, respectively, for free uptake.
After administering rats with a specified sample for 28 continuous days, blood was sampled from each rat using a VENOJECT II vacuum blood collection tube of 7 mL size (available from Terumo Corporation, Tokyo, Japan) preinfused with 350 μL heparin as an anticoagulant (equivalent to 5% of whole blood). Upon sampling, the blood was agitated quickly to obtain blood samples for measurement. For blood measurement, a cellular microrheological measurement system was used (MC-FAN available from Hitachi Haramachi Electronics Co., Ltd., Ibaragi, Japan). The system incorporates an array of microchannels as a model of blood capillaries to measure the flowing characteristics of blood cells under constant differential pressure. As the model of blood capillaries, a silicon monocrystal basal plate having microchannels of 7 μm in width was used.
First, the time was measured for a 100 μL physiological saline solution to pass through the blood capillary model under differential pressure of 20 cm water column (the measured value to be used later for correction). Then the time was measured (in sec.) for a 100 μL each blood sample to pass through the blood capillary model under the same conditions. The time was measured every 10 μL fraction of sample flow. Each blood sample was microscopically observed as it flowed through the blood capillary model.

The test system is the same in test [2]. Kind of test: Evaluation of effects of improving cerebrovascular diseases: development of cerebral apoplexy, histopathological examination. It counts as in vivo, rat. The settings on record: 50 mg/Kg/day oral, 49 days. As for the experimental part: Tests were started using stroke-prone spontaneously hypertensive rats (SHRSP/Izm, male) 6 weeks old after acclimating the rats I week or longer. The rats were all fed under the conditions of 20 to 26° C. temperature, 40 to 70% humidity and 12 hr. lighting time (from 6 a.m. to 6 p.m.). Rat was administered with samples of the preferred example of the present invention and samples of the comparative example once a day for continuous 49 days from a day when the rats reached 8 weeks of age. For administration, samples were orally administered by forced administration using a disposable polypropylene syringe attached with a metallic oral sonde. For the preferred example, each sample comprised a chlorogenic acid (supplied by Sigma Chemical Co., Ltd.) of 50 mg/Kg (body weight)/day, while the comparative example used the equal dose of injection grade water (supplied by Otsuka Pharmaceutical Co., Ltd., Tokyo, Japan) as samples. The preferred example also used the injection grade water as a medium for samples. For feeds, the rats were fed freely with a solid feed (CRF-1 supplied by Oriental Yeast Co., Ltd., Tokyo, Japan) for a period from the arrival to grouping of rats and with another solid feed (SP (a feed containing 0.4% common salt) supplied by the same manufacturer as above) for a period succeeding to the grouping. […]

On to `O=C(/C=C/c1ccc(O)c(O)c1)O[C@@H]1C[C@](O)(C(=O)O)C[C@@H](O)[C@H]1O` [Preferred example, chlorogenic acid], for which, in test [1], the “Transit times versus comparative example (injection grade water), in words” value is “shorter transit times”. The Transit time in test [1] (blood volume passed 10 μL) worked out at 4.87 s; in test [1] (blood volume passed 20 μL), 9.67 s; in test [1] (blood volume passed 30 μL), 14.31 s; in test [1] (blood volume passed 40 μL), 19.34 s; in test [1] (blood volume passed 50 μL) it was 24.59 s; in test [1] (blood volume passed 60 μL) it was 30.03 s. For the same compound, the Transit time was determined as 35.90 s in test [1] (blood volume passed 70 μL), 41.65 s in test [1] (blood volume passed 80 μL), 47.58 s in test [1] (blood volume passed 90 μL) and 53.38 s in test [1] (blood volume passed 100 μL). In addition, the “Development of cerebral apoplexy versus comparative example (injection grade water), in words” value in test [2] is given as “definitely suppressed development of cerebral apoplexy”. In test [2] (of 10 rats used), the “Cerebral apoplexy developed (number of rats)” value was found to be 3.
